From the supplement of paper PMC10627819

Key:
[1] = system: S. pneumoniae D39V; assay: fitness (endpoint OD595 vs no drug) (fraction); higher = more growth
Outline: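 In 384-well plates at 37 °C, cultures began at OD595 0.01 in 30 µl, with 55 µl used for S. pneumoniae. OD595 readings every 30 min for 14 h were corrected by the first reading. Fitness divides the stationary-phase transition optical density by the robust mean of no-drug control wells. The result is capped at 1.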

[2] = system: S. aureus DSM 20231; assay: Bliss interaction score (quartile over a dose matrix) (fitness difference); higher = more antagonism (negative = synergy)
Outline: (§1)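 Fitness is OD595 at stationary-phase entry relative to the plate's robust no-drug mean, capped at 1. Single-drug fitness was inferred from combinations. The Bliss score is observed minus product-expected fitness, summarised by quartiles over technical, biological and donor/recipient replicates.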

[3] = system: S. pneumoniae D39V; assay: as above
Outline: as §1

[4] = system: B. subtilis 168; assay: as above
Outline: as §1

[5] = system: S. aureus Newman; assay: as above
Outline: as §1
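Throughout, for Bliss interaction score (quartile over a dose matrix): first quartile when negative (synergy) and third quartile when positive (antagonism).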

O=C1CN(/N=C/c2ccc([N+](=O)[O-])o2)C(=O)N1 [Nitrofurantoin] + Cc1onc(-c2ccccc2)c1C(=O)N[C@@H]1C(=O)N2[C@@H]1SC(C)(C)[C@@H]2C(=O)O [Oxacillin]
fitness, [1]
Conditions	first compound 1.285 µg/mL	first compound 2 µg/mL	first compound 2.57 µg/mL	first compound 4 µg/mL	first compound 8 µg/mL
partner 0.01 µg/mL	0.955	0.928	0.958	0.932	0.802
partner 0.02 µg/mL	0.959	0.873	0.944	0.864	0.798
partner 0.04 µg/mL	0.761	0.475	0.754	0.531	0.53

[1], first compound 5.14 µg/mL, one replicate
Conditions	fitness
partner 0.01 µg/mL	0.955
partner 0.02 µg/mL	0.967
partner 0.04 µg/mL	0.795

Conditions	Bliss interaction score
[2]	-0.0421
[3]	0.162
[4]	0.0329
[5]	0.0474

CC[C@H]1OC(=O)[C@H](C)[C@@H](O[C@H]2C[C@@](C)(OC)[C@@H](O)[C@H](C)O2)[C@H](C)[C@@H](O[C@@H]2O[C@H](C)C[C@H](N(C)C)[C@H]2O)[C@](C)(OC)C[C@@H](C)C(=O)[C@H](C)[C@@H](O)[C@]1(C)O [Clarithromycin] + CN[C@@H]1[C@H](O[C@H]2[C@H](O[C@H]3[C@H](O)[C@@H](O)[C@H](N=C(N)N)[C@@H](O)[C@@H]3N=C(N)N)O[C@@H](C)[C@]2(O)C=O)O[C@@H](CO)[C@H](O)[C@H]1O [Streptomycin]
fitness, [1], one replicate
Conditions	first compound 0.007812 µg/mL	first compound 0.01562 µg/mL	first compound 0.03125 µg/mL	first compound 0.0625 µg/mL	first compound 0.125 µg/mL	first compound 0.25 µg/mL
partner 2 µg/mL	0.857	0.802	0.663	0.68	0.318	0.129
partner 4 µg/mL	0.866	0.799	0.694	–	–	–
partner 8 µg/mL	0.845	0.793	0.651	–	–	–
partner 16 µg/mL	–	–	–	0.478	0.184	0.0864

fitness, [1]
Conditions	first compound 0.0625 µg/mL	first compound 0.07 µg/mL	first compound 0.125 µg/mL	first compound 0.14 µg/mL	first compound 0.25 µg/mL	first compound 0.28 µg/mL
partner 2 µg/mL	–	0.117	–	0.0741	–	0.0426
partner 4 µg/mL	0.623	0.103	0.3	0.0646	0.142	0.0455
partner 8 µg/mL	0.594	0.154	0.312	0.0691	0.107	0.0723

Conditions	Bliss interaction score
[2]	0.0696
[3]	-0.0538
[4]	0.0553
[5]	-0.0521

O=C1CN(/N=C/c2ccc([N+](=O)[O-])o2)C(=O)N1 [Nitrofurantoin] + CN(C)c1cc(NC(=O)CNC(C)(C)C)c(O)c2c1C[C@H]1C[C@H]3[C@H](N(C)C)C(O)=C(C(N)=O)C(=O)[C@@]3(O)C(O)=C1C2=O [Tigecycline]
fitness, [1]
Conditions	first compound 1.285 µg/mL	first compound 2 µg/mL	first compound 2.57 µg/mL	first compound 4 µg/mL	first compound 8 µg/mL
partner 0.65 µg/mL	0.939	0.96	0.932	0.971	0.921
partner 1.3 µg/mL	0.957	0.958	0.957	0.941	0.881
partner 2.6 µg/mL	0.949	0.919	0.936	0.937	0.9

[1], first compound 5.14 µg/mL, one replicate
Conditions	fitness
partner 0.65 µg/mL	0.922
partner 1.3 µg/mL	0.92
partner 2.6 µg/mL	0.894

Conditions	Bliss interaction score
[2]	0.0547
[3]	0.0879
[4]	0.178
[5]	0.0708

CC[C@H]1OC(=O)[C@H](C)[C@@H](O[C@H]2C[C@@](C)(OC)[C@@H](O)[C@H](C)O2)[C@H](C)[C@@H](O[C@@H]2O[C@H](C)C[C@H](N(C)C)[C@H]2O)[C@](C)(OC)C[C@@H](C)C(=O)[C@H](C)[C@@H](O)[C@]1(C)O [Clarithromycin] + C/C(=C\C(=O)OCCCCCCCCC(=O)O)C[C@@H]1OC[C@H](C[C@@H]2O[C@H]2[C@@H](C)[C@H](C)O)[C@@H](O)[C@H]1O [Pseudomonic acid]
fitness, [1], one replicate
Conditions	first compound 0.007812 µg/mL	first compound 0.01562 µg/mL	first compound 0.03125 µg/mL
partner 0.03 µg/mL	0.925	0.852	0.667
partner 0.06 µg/mL	0.841	0.838	0.673
partner 0.12 µg/mL	0.68	0.615	0.412

fitness, [1]
Conditions	first compound 0.0625 µg/mL	first compound 0.07 µg/mL	first compound 0.125 µg/mL	first compound 0.14 µg/mL	first compound 0.25 µg/mL	first compound 0.28 µg/mL
partner 0.03 µg/mL	0.683	0.159	0.427	0.0976	0.258	0.0736
partner 0.06 µg/mL	–	0.12	0.399	0.102	0.174	0.0966
partner 0.12 µg/mL	0.431	0.101	0.24	0.0908	0.117	0.0699

Conditions	Bliss interaction score
[2]	0.0125
[3]	0.0643
[4]	0.0528
[5]	0.0379

C[C@@H](O)[C@H]1C(=O)N2C(C(=O)O)=C(SCCNC=N)C[C@H]12 [Imipenem] + CCC[C@@H]1C[C@@H](C(=O)N[C@@H]([C@H]2O[C@H](SC)[C@H](O)[C@@H](O)[C@H]2O)[C@@H](C)O)N(C)C1 [Lincomycin]
fitness, [1]
Conditions	first compound 0.005 µg/mL	first compound 0.0065 µg/mL	first compound 0.01 µg/mL	first compound 0.013 µg/mL	first compound 0.02 µg/mL	first compound 0.026 µg/mL
partner 0.2 µg/mL	–	0.68	–	0.738	–	0.693
partner 0.215 µg/mL	0.829	–	0.846	–	0.814	–
partner 0.4 µg/mL	–	0.563	–	0.626	–	0.596
partner 0.43 µg/mL	0.719	–	0.722	–	0.71	–
partner 0.8 µg/mL	–	0.0187	–	0.0703	–	0.0319
partner 0.86 µg/mL	0.474	–	0.451	–	0.453	–

Conditions	Bliss interaction score
[2]	0.09
[3]	-0.0603
[4]	0.163
[5]	0.0416

C[C@@H](O)[C@H]1C(=O)N2C(C(=O)O)=C(SCCNC=N)C[C@H]12 [Imipenem] + Cc1onc(-c2ccccc2)c1C(=O)N[C@@H]1C(=O)N2[C@@H]1SC(C)(C)[C@@H]2C(=O)O [Oxacillin]
fitness, [1]
Conditions	first compound 0.005 µg/mL	first compound 0.0065 µg/mL	first compound 0.01 µg/mL	first compound 0.013 µg/mL	first compound 0.02 µg/mL	first compound 0.026 µg/mL
partner 0.01 µg/mL	0.963	0.968	0.983	0.996	0.95	0.956
partner 0.02 µg/mL	0.92	0.845	0.933	0.902	0.905	0.812
partner 0.04 µg/mL	0.524	0.0658	0.511	0.171	0.468	0.109

Conditions	Bliss interaction score
[2]	-0.0527
[3]	0.0736
[4]	-0.048
[5]	0.0474

CC[C@H]1OC(=O)[C@H](C)[C@@H](O[C@H]2C[C@@](C)(OC)[C@@H](O)[C@H](C)O2)[C@H](C)[C@@H](O[C@@H]2O[C@H](C)C[C@H](N(C)C)[C@H]2O)[C@](C)(OC)C[C@@H](C)C(=O)[C@H](C)[C@@H](O)[C@]1(C)O [Clarithromycin] + C[C@@H](O)[C@H]1C(=O)N2C(C(=O)O)=C(SCCNC=N)C[C@H]12 [Imipenem]
fitness, [1], one replicate
Conditions	first compound 0.007812 µg/mL	first compound 0.01562 µg/mL	first compound 0.03125 µg/mL
partner 0.005 µg/mL	0.831	0.812	0.589
partner 0.01 µg/mL	0.855	0.837	0.612
partner 0.02 µg/mL	0.858	0.844	0.629

fitness, [1]
Conditions	first compound 0.0625 µg/mL	first compound 0.07 µg/mL	first compound 0.125 µg/mL	first compound 0.14 µg/mL	first compound 0.25 µg/mL	first compound 0.28 µg/mL
partner 0.005 µg/mL	–	0.13	–	0.0799	–	0.0611
partner 0.0065 µg/mL	0.541	–	0.154	–	0.0361	–
partner 0.01 µg/mL	–	0.146	–	0.0799	–	0.0532
partner 0.013 µg/mL	0.661	–	0.277	–	0.0557	–
partner 0.02 µg/mL	–	0.17	–	0.109	–	0.0635
partner 0.026 µg/mL	0.621	–	0.201	–	0.0493	–

Conditions	Bliss interaction score
[2]	0.0295
[3]	-0.085
[4]	0.0428
[5]	0.0267

CC[C@H]1OC(=O)[C@H](C)[C@@H](O[C@H]2C[C@@](C)(OC)[C@@H](O)[C@H](C)O2)[C@H](C)[C@@H](O[C@@H]2O[C@H](C)C[C@H](N(C)C)[C@H]2O)[C@](C)(OC)C[C@@H](C)C(=O)[C@H](C)[C@@H](O)[C@]1(C)O [Clarithromycin] + O=C1CN(/N=C/c2ccc([N+](=O)[O-])o2)C(=O)N1 [Nitrofurantoin]
fitness, [1], one replicate
Conditions	first compound 0.007812 µg/mL	first compound 0.01562 µg/mL	first compound 0.03125 µg/mL	first compound 0.0625 µg/mL	first compound 0.125 µg/mL	first compound 0.25 µg/mL
partner 2 µg/mL	0.879	0.802	0.627	–	–	–
partner 4 µg/mL	0.862	0.788	0.643	–	–	–
partner 5.14 µg/mL	–	–	–	0.402	0.214	0.146
partner 8 µg/mL	0.744	0.678	0.556	–	–	–

fitness, [1]
Conditions	first compound 0.0625 µg/mL	first compound 0.07 µg/mL	first compound 0.125 µg/mL	first compound 0.14 µg/mL	first compound 0.25 µg/mL	first compound 0.28 µg/mL
partner 1.285 µg/mL	0.636	–	0.263	–	0.104	–
partner 2 µg/mL	–	0.0417	–	0.0458	–	0.0401
partner 2.57 µg/mL	0.59	–	0.199	–	0.0984	–
partner 4 µg/mL	–	0.0482	–	0.0382	–	0.0171
partner 8 µg/mL	–	0.0337	–	0.0552	–	0.0141

Conditions	Bliss interaction score
[2]	-0.04
[3]	-0.0986
[4]	-0.0776
[5]	-0.117

O=C1CN(/N=C/c2ccc([N+](=O)[O-])o2)C(=O)N1 [Nitrofurantoin] + Cn1nnc(-c2ccc(-c3ccc(N4C[C@H](CO)OC4=O)cc3F)cn2)n1 [Tedizolid]
fitness, [1]
Conditions	first compound 1.285 µg/mL	first compound 2 µg/mL	first compound 2.57 µg/mL	first compound 4 µg/mL	first compound 8 µg/mL
partner 0.03125 µg/mL	–	0.948	–	0.957	0.951
partner 0.0625 µg/mL	–	0.893	–	0.915	0.859
partner 0.125 µg/mL	0.805	0.767	0.812	0.775	0.771
partner 0.25 µg/mL	0.724	–	0.676	–	–
partner 0.5 µg/mL	0.258	–	0.217	–	–

[1], first compound 5.14 µg/mL, one replicate
Conditions	fitness
partner 0.125 µg/mL	0.791
partner 0.25 µg/mL	0.589
partner 0.5 µg/mL	0.18

Conditions	Bliss interaction score
[2]	-0.0543
[3]	-0.141
[4]	-0.0546
[5]	-0.0562
